In ChEMBL document CHEMBL5338731, “Development of Neuropeptide Hemokinin-1 Analogues with Antimicrobial and Wound-Healing Activity” (J Med Chem, 2023):
Values after ≈ are worked out from the molar mass of the structure shown. Active and inactive are the calls of the source. No cut-off for these calls is given here.

Columns and labels:
Escherichia coli [1] = experiment: Antimicrobial activity against Escherichia coli ATCC 25922 assessed as inhibition of bacterial growth incubated for 18 hrs by serial dilution method; assay type: functional
Pseudomonas aeruginosa [2] = experiment: Antimicrobial activity against Pseudomonas aeruginosa PAO1 assessed as inhibition of bacterial growth incubated for 18 hrs by serial dilution method; assay type: functional
NIH3T3 [3] = experiment: Induction of cell migration in mouse NIH3T3 cells assessed as […] at 0.1 to 1000 nM incubated for 48 hrs by phase-contrast microscopy based scratch wound healing assay; assay type: functional; conditions: dose 0.1-1000 nM
HEK293 [4] = experiment: Induction of cell proliferation in human HEK293 cells assessed as increase in cell viability at 0.1 to 1000 nM incubated for 48 hrs by MTT assay; assay type: functional, cell-based; conditions: dose 0.1-1000 nM
Mus musculus [5] = species: Mus musculus; experiment: Wound healing activity in Kunming mouse full-thickness excisional wound model assessed as increase in wound closure at 1 10^-7M, TOP BID and measured upto 8 days by image analysis; assay type: functional, organism-based; conditions: time <= 8.0 day
[6] = Hemolytic activity in mouse erythrocytes assessed as haemoglobin release at 400 uM incubated for 1 hrs by microplate reader method; assay type: toxicity, cell-based, Erythrocyte; conditions: read-out: Activity
Pseudomonas aeruginosa [7] = experiment: Antimicrobial activity against Pseudomonas aeruginosa ATCC 27853 assessed as inhibition of bacterial growth incubated for 18 hrs by serial dilution method; assay type: functional
Escherichia coli [8] = experiment: Antimicrobial activity against Escherichia coli ML-35 assessed as inhibition of bacterial growth incubated for 18 hrs by serial dilution method; assay type: functional
Staphylococcus aureus [9] = experiment: Antimicrobial activity against Staphylococcus aureus ATCC 29213 assessed as inhibition of bacterial growth incubated for 18 hrs by serial dilution method; assay type: functional
RAW264.7 [10] = experiment: Anti-inflammatory activity in LPS-stimulated mouse RAW264.7 cells assessed as inhibition of NO production at 16 uM incubated for 24 hrs by Griess reagent based assay; assay type: functional, cell-based
Staphylococcus aureus [11] = experiment: Antimicrobial activity against Staphylococcus aureus ATCC 25923 assessed as inhibition of bacterial growth incubated for 18 hrs by serial dilution method; assay type: functional
NIH3T3 [12] = experiment: Induction of cell proliferation in mouse NIH3T3 cells assessed as increase in cell viability at 0.1 to 1000 nM incubated for 48 hrs by MTT assay; assay type: functional, cell-based; conditions: dose 0.1-1000 nM
RAW264.7 [13] = experiment: Cytotoxicity against mouse RAW264.7 cells assessed as reduction in cell viability at 1 to 16 uM incubated for 24 hrs by MTT assay; assay type: toxicity, cell-based; conditions: raw264.7, 24 h, dose 1-16 µM
HEK293 [14] = experiment: Induction of cell proliferation in human HEK293 cells expressing NK1R assessed as increase in cell viability at 0.1 to 1000 nM incubated for 48 hrs by MTT assay; assay type: functional, cell-based; conditions: dose 0.1-1000 nM
Bacillus subtilis = experiment: Antimicrobial activity against Bacillus subtilis ATCC 23857 assessed as inhibition of bacterial growth incubated for 18 hrs by serial dilution method; assay type: functional
Mus musculus [15] = species: Mus musculus; experiment: Antimicrobial activity in Staphylococcus aureus ATCC 25923 infected Kunming mouse excisional wound model assessed as decrease in bacterial growth at 1 10^-4M, TOP BID and measured upto 8 days by image analysis; assay type: functional, organism-based; conditions: time <= 8.0 day
Staphylococcus aureus [16] = experiment: Bactericidal activity against Staphylococcus aureus ATCC 25923 assessed as reduction in colony forming unit at 2 times MIC and measured after 120 mins by time-kill kinetics assay; assay type: functional, organism-based
Mus musculus [17] = species: Mus musculus; experiment: Wound healing activity in Staphylococcus aureus ATCC 25923 infected Kunming mouse excisional wound model assessed as increase in wound repair at 1 10^-4M, TOP BID and measured upto 8 days by image analysis; assay type: functional, organism-based; conditions: time <= 8.0 day
RAW264.7 [18] = experiment: Anti-inflammatory activity against LPS-stimulated mouse RAW264.7 cells assessed as reduction in TNF-alpha mRNA expression level at 1 to 16 uM incubated for 4 hrs by RT-qPCR analysis; assay type: functional, cell-based; conditions: dose 1-16 µM
RAW264.7 [19] = experiment: Anti-inflammatory activity against LPS-stimulated mouse RAW264.7 cells assessed as reduction in IL-6 mRNA expression level at 1 to 16 uM incubated for 4 hrs by RT-qPCR analysis; assay type: functional, cell-based; conditions: dose 1-16 µM
Lipopolysaccharide (LPS) = experiment: Binding affinity to Escherichia coli O111:B4 LPS assessed as dissociation constant by ITC assay
RAW264.7 [20] = experiment: Anti-inflammatory activity against LPS-stimulated mouse RAW264.7 cells assessed as reduction in IL-1beta mRNA expression level at 1 to 16 uM incubated for 4 hrs by RT-qPCR analysis; assay type: functional, cell-based; conditions: dose 1-16 µM
[21] = Cytotoxicity against mouse RAW264.7 cells assessed as cell survival rate at 16 uM incubated for 24 hrs by MTT assay; assay type: toxicity, cell-based; conditions: read-out: Survival
Mus musculus [22] = species: Mus musculus; experiment: Wound healing activity in Kunming mouse full-thickness excisional wound model with splints assessed as increase in wound healing rate at 1 10^-7M, TOP BID and measured upto 8 days by image analysis; assay type: functional, organism-based; conditions: time <= 8.0 day

| Compound | MIC (Escherichia coli [1]) [µM] | MIC (Pseudomonas aeruginosa [2]) [µM] | Activity (NIH3T3 [3]) | Activity (HEK293 [4]) | Activity (Mus musculus [5]) | hemolysis at 1 h, 400 µM [6] [%] | MIC (Pseudomonas aeruginosa [7]) [µM] | MIC (Escherichia coli [8]) [µM] | MIC (Staphylococcus aureus [9]) [µM] | inhibition (RAW264.7 [10]) | MIC (Staphylococcus aureus [11]) [µM] | Activity (NIH3T3 [12]) | Activity (HEK293 [14]) | MIC (Bacillus subtilis) [µM] | other results |
| --- | --- | --- | --- | --- | --- | --- | --- | --- | --- | --- | --- | --- | --- | --- | --- |
| CSCC[C@H](NC(=O)[C@H](CC(C)C)NC(=O)CNC(=O)[C@H](Cc1ccccc1)NC(=O)[C@H](Cc1ccccc1)NC(=O)[C@H](CCC(N)=O)NC(=O)[C@H](CO)NC(=O)[C@H](C)NC(=O)[C@H](CCCCN)NC(=O)CNC(=O)[C@@H](N)[C@H](C)O)C(N)=O | > 128 | > 128 | Active | inactive | Active | 5.05 | > 128 | > 128 | > 128 | inactive | > 128 | Active | Active | > 128 | Activity (RAW264.7 [13]): Non-Toxic |
| CC1(C)S[C@@H]2[C@H](NC(=O)[C@H](N)c3ccc(O)cc3)C(=O)N2[C@H]1C(=O)O [AMOXICILLIN] | 4 (≈ 1.46 µg/mL) | > 128 |  |  |  |  | > 128 | 16 (≈ 5.85 µg/mL) | 2 (≈ 0.731 µg/mL) |  | < 1 |  |  | 8 (≈ 2.92 µg/mL) |  |
| CN[C@H](CC(C)C)C(=O)N[C@H]1C(=O)N[C@@H](CC(N)=O)C(=O)N[C@H]2C(=O)N[C@H]3C(=O)N[C@H](C(=O)N[C@H](C(=O)O)c4cc(O)cc(O)c4-c4cc3ccc4O)[C@H](O)c3ccc(c(Cl)c3)Oc3cc2cc(c3O[C@@H]2O[C@H](CO)[C@@H](O)[C@H](O)[C@H]2O[C@H]2C[C@](C)(N)[C@H](O)[C@H](C)O2)Oc2ccc(cc2Cl)[C@H]1O [VANCOMYCIN] | 64 (≈ 92.8 µg/mL) | > 128 |  |  |  |  | > 128 | 64 (≈ 92.8 µg/mL) | < 1 |  | < 1 |  |  | < 1 | Activity (Mus musculus [15]): Active; Activity (Staphylococcus aureus [16]): inactive; Activity (Mus musculus [17]): Active |
| H-LKKWLKKWTGKASQFFGLM-NH2 | 2 | 4 | Active | inactive | Active | 7.88 | 4 | 2 | 8 | Active | 4 | Active | Active | 2 | Activity (RAW264.7 [18]): Dose-Dependent Effect; Activity (RAW264.7 [19]): Dose-Dependent Effect; Kd (Lipopolysaccharide (LPS)): 25 µM; Activity (RAW264.7 [20]): Dose-Dependent Effect; viability at 24 h, 16 µM [21]: > 90%; Activity (Mus musculus [22]): Active |
